Values joined by “and” are separate entries in the source; they are usually repeats but may differ in a detail not shown here. Identical values can stand only once. Like-named read-outs stand apart in the source and are kept apart here. Starred links: 1 amine or outer side, 2 acyl side, 3 side chain; linkers in the order of their positions; H or OH if unused. Non-standard residues stand in square brackets, D forms with d. Residues, ends and D or L forms follow the SMILES beside them. X3 = O=C([C@H](N[*:1])C12CC3CC(CC(C3)C1)C2)[*:2]; Phe(4-NH2) = Nc1ccc(C[C@H](N)C(=O)O)cc1; 1Nal = N[C@@H](Cc1cccc2ccccc12)C(=O)O; 2Nal = N[C@@H](Cc1ccc2ccccc2c1)C(=O)O; Phe(2-F) = N[C@@H](Cc1ccccc1F)C(=O)O; X2 = CCC(CC)[C@@H](N[*:1])C(=O)[*:2]; 2Thi = N[C@@H](Cc1cccs1)C(=O)O; Cha = N[C@@H](CC1CCCCC1)C(=O)O; Orn = NCCC[C@H](N)C(=O)O
Assays:
[1] = molecular target: human plasma kallikrein (HPK) (Homo sapiens, UniProt P03952); test: Inhibition of human plasma kallikrein (KI); type: biochemical
Excerpt: (§1) Assay methods were based on the cleavage of chromogenic substrate S-2266 (D-Val-Leu-Arg-pNA) (Kabi; Charlotte, N.C.) by porcine pancreatic kallikrein (Sigma Chemical Company; St. Louis, Mo.) to yield an increase in absorbance at 405 nm. By changing the substrate and enzyme, the general method has been extended to measure the inhibition of human tissue kallikrein (HTK or human urinary kallikrein HUK), human plasma kallikrein (HPK), plasmin, and urokinase (UK). In all assays, the robot dilutes the inhibitor into a series of wells and adds substrate and buffer. Chromogenic reactions are started by the addition of enzyme. Changes in the absorbance at 405 nm in an array of wells were recorded. All manipulations were performed by the instrument from reservoirs containing substrate, inhibitor, diluent (water), buffer, or enzyme.

[2] = molecular target: T1, human urinary kallikrein (HUK) (Homo sapiens, UniProt P06870); test: Inhibition of human urinary (tissue) kallikrein (KI); type: biochemical
T1 construct: Human urinary kallikrein (HUK) was purified from human urine; from tissue
Protocol: Human urinary kallikrein (HUK) was purified from human urine. Briefly, urine was subjected to ultrafiltration to concentrate the protein components which were applied to approtinin-CH-Sepharose affinity columns. Active fractions from these columns were next applied to Sephadex G-100 gel filtration and collected as fractions. The pH of each fraction was determined immediately upon elution, and the fraction was neutralized by addition of 2.0 ml of 2M Tris-HCL buffer, pH 8.0. Porcine pancreatic 24-kallikrein (PPK), at 50 units/mg protein; 1.0 units hydrolyses 1.0 μM BAEE (benzoyl -L-arginine ethyl ester) to N-a-benzoyl-L-arginine/minute at pH 8.7 at 25° C., was purchased from Sigma Chemical Company (St. Louis, Mo.). […] All other enzymes were purchased from Sigma Chemical Company (St. Louis, Mo.).
Dixon plots were used for data reduction and for calculation of […].
as §1

[3] = molecular target: porcine pancreatic kallikrein (PPK) (Sus scrofa, UniProt P00752); test: Inhibition of porcine pancreatic kallikrein, cleavage of chromogenic substrate S-2266 (KI); type: biochemical
urokinase (UK) = molecular target: T2, urokinase (UK) (Homo sapiens, UniProt P00749); test: Inhibition of urokinase (KI); type: biochemical; settings: Table 7; read-out: K1 UK
T2 construct: purchased Sigma Chemical Company (St. Louis, Mo.)
Excerpt: as §1

[4] = Measured lipophilicity (KO/W); type: physicochemical; settings: Table 2, measured lipophilicity, change relative to Gly analog
Excerpt: Listed in Table 2 are KI values along with changes in volume (ΔV), measured lipophilicity (ΔKO/W), and calculated lipophilicity (ΔCLOGP). Some of the substrates containing a D-amino acid residue at P3 are rapidly hydrolyzed by tissue kallikrein. To overcome this problem, a new method was also used to determine KI (see Example 6).

[5] = Table 4, Pro-X-Arg-Ser-Val-Gln, read-out: KI HPK
[6] = Table 4, Pro-X-Arg-Ser-Val-Gln, read-out: KI HUK
[7] = Table 4, Pro-X-Arg-Ser-Val-Gln, read-out: KI PPK
[8] = Table 7, in mM, read-out: K1 HPK
[9] = Table 7, in mM, read-out: K1 PPK

Chain of porcine pancreatic kallikrein (PPK) (P00752 8-87 limits assumed): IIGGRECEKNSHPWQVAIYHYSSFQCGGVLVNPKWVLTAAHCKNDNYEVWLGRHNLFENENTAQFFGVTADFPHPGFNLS
Chain of porcine pancreatic kallikrein (PPK) (P00752 95-246 limits assumed): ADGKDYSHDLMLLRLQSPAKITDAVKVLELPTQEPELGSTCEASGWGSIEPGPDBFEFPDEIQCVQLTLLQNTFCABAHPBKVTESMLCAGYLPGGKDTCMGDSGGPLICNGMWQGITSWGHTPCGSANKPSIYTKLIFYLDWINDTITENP
T1 sequence (P06870 25-262): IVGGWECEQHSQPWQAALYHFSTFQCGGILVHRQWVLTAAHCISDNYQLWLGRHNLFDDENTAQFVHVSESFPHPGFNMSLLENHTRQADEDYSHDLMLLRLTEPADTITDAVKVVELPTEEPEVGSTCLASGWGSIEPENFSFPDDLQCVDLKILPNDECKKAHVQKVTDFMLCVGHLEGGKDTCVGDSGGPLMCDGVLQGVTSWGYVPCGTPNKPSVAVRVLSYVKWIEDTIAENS
Chain of human plasma kallikrein (HPK) (P03952 20-638): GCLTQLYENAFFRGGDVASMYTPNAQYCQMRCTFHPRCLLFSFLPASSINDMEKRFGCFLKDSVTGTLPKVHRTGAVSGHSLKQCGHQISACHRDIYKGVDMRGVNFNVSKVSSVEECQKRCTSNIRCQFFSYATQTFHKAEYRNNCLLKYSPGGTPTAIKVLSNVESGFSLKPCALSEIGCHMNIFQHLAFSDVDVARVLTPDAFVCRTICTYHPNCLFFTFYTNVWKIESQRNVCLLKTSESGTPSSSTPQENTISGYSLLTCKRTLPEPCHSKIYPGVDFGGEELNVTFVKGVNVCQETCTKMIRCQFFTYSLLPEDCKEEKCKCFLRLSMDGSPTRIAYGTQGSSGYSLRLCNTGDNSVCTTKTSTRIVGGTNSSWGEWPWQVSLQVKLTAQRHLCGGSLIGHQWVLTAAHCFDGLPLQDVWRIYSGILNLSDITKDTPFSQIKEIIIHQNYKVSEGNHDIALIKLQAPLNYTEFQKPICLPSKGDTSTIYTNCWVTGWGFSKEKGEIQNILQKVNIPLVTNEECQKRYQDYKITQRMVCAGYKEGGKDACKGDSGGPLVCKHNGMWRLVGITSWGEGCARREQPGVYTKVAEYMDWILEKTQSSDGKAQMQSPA

Ki [1, 5]	Ki [2, 6]	Ki [3, 7]	Ki (urokinase (UK))	Ki [1, 8]	Compound	also measured
–	–	–	–	–	CC(C)[C@H](NC(=O)[C@H](CC(N)=O)NC(=O)[C@H](CCCNC(=N)N)NC(=O)[C@H](Cc1ccccc1)NC(=O)[C@@H]1CCCN1)C(=O)N[C@@H](CCC(N)=O)C(N)=O [Asn] (H-PFRNVQ-NH2)	Ki ([1]; Table 5, Pro-Phe-Arg-X-Val-Gln, read-out: KI HPK): 0.244 mM; Ki ([2]; Table 5, Pro-Phe-Arg-X-Val-Gln, read-out: KI HUK): 99 µM; Ki ([3]; Table 5, Pro-Phe-Arg-X-Val-Gln, read-out: KI PPK): 0.058 mM and 0.099 mM and 0.067 mM; Ki ([3]; Table 5, values in [] : Dithiothreitol, read-out: KI PPK): 0.033 mM
0.472 mM	151 µM	0.124 mM	–	–	CC(C)[C@H](NC(=O)[C@H](CO)NC(=O)[C@H](CCCNC(=N)N)NC(=O)[C@H](Cc1ccccc1F)NC(=O)[C@@H]1CCCN1)C(=O)N[C@@H](CCC(N)=O)C(N)=O [KCH-1] (H-P[Phe(2-F)]RSVQ-NH2)	–
0.497 mM	249 µM	0.109 mM	–	–	CC(C)[C@H](NC(=O)[C@H](CO)NC(=O)[C@H](CCCNC(=N)N)NC(=O)[C@H](Cc1cccs1)NC(=O)[C@@H]1CCCN1)C(=O)N[C@@H](CCC(N)=O)C(N)=O [KCH-4] (H-P[2Thi]RSVQ-NH2)	–
0.665 mM	114 µM	0.133 mM	–	–	CC(C)[C@H](NC(=O)[C@H](CO)NC(=O)[C@H](CCCNC(=N)N)NC(=O)[C@H](Cc1ccc2ccccc2c1)NC(=O)[C@@H]1CCCN1)C(=O)N[C@@H](CCC(N)=O)C(N)=O [KCH-6] (H-P[2Nal]RSVQ-NH2)	–
0.516 mM	41 µM	0.13 mM	–	–	CC(C)[C@H](NC(=O)[C@H](CO)NC(=O)[C@H](CCCNC(=N)N)NC(=O)[C@H](Cc1cccc2ccccc12)NC(=O)[C@@H]1CCCN1)C(=O)N[C@@H](CCC(N)=O)C(N)=O [KCH-7] (H-P[1Nal]RSVQ-NH2)	–
0.813 mM	92 µM	0.085 mM	–	–	CC(C)[C@H](NC(=O)[C@H](CO)NC(=O)[C@H](CCCNC(=N)N)NC(=O)[C@H](CC1CCCCC1)NC(=O)[C@@H]1CCCN1)C(=O)N[C@@H](CCC(N)=O)C(N)=O [KCH-10] (H-P[Cha]RSVQ-NH2)	–
–	–	–	> 20000 µM	–	CC(C)[C@H](NC(=O)[C@H](CO)NC(=O)[C@H](CCCCN)NC(=O)[C@H](Cc1ccccc1)NC(=O)[C@@H]1CCCN1)C(=O)N[C@@H](CCC(N)=O)C(N)=O [KIDZ-2, Pro-Phe-Lys-Ser-Val-Gln] (H-PFKSVQ-NH2)	Ki ([1]; Table 7, read-out: K1 HPK): 2.5 mM; Ki ([3]; Table 7, read-out: K1 PPK): 0.294 mM
–	–	–	> 20000 µM	> 5 mM	CC(C)[C@H](NC(=O)[C@H](CO)NC(=O)[C@H](CCCN)NC(=O)[C@H](Cc1ccccc1)NC(=O)[C@@H]1CCCN1)C(=O)N[C@@H](CCC(N)=O)C(N)=O [KIDZ-3, Pro-Phe-Orn-Ser-Val-Gln] (H-PF[Orn]SVQ-NH2)	Ki [3, 9]: > 5 mM
–	–	–	> 20000 µM	> 10 mM	CC(C)[C@H](NC(=O)[C@H](CO)NC(=O)[C@H](Cc1ccc(N)cc1)NC(=O)[C@H](Cc1ccccc1)NC(=O)[C@@H]1CCCN1)C(=O)N[C@@H](CCC(N)=O)C(N)=O [KIDZ-6, Pro-Phe-Aph-Ser-Val-Gla] (H-PF[Phe(4-NH2)]SVQ-NH2)	Ki ([2]; Table 7, read-out: K1 HUK): 21 µM; Ki ([2]; text b391, read-out: HUK KI): < 50 µM; Ki ([3]; Table 7, read-out: K1 PPK): 0.036 mM; Ki ([3]; text b391, read-out: PPK KI): < 0.05 mM
–	–	–	> 20000 µM	> 20 mM	CC(C)[C@H](NC(=O)[C@H](CO)NC(=O)[C@H](Cc1c[nH]cn1)NC(=O)[C@H](Cc1ccccc1)NC(=O)[C@@H]1CCCN1)C(=O)N[C@@H](CCC(N)=O)C(N)=O [KIDZ-12, Pro-Phe-His-Ser-Val-Gln] (H-PFHSVQ-NH2)	Ki [3, 9]: > 1 mM
–	–	–	> 20000 µM	> 20 mM	CSCC[C@H](NC(=O)[C@H](Cc1ccccc1)NC(=O)[C@@H]1CCCN1)C(=O)N[C@@H](CO)C(=O)N[C@H](C(=O)N[C@@H](CCC(N)=O)C(N)=O)C(C)C [KIDZ-13, Pro-Phe-Met-Ser-Val-Gln] (H-PFMSVQ-NH2)	Ki [3, 9]: > 4 mM
–	–	–	> 20000 µM	–	CC(C)[C@H](NC(=O)[C@H](CO)NC(=O)[C@H](CCCNC(=N)N)NC(=O)[C@@H](NC(=O)[C@@H]1CCCN1)[C@@H](C)O)C(=O)N[C@@H](CCC(N)=O)C(N)=O [KIDZ-14, Pro-Thr-Arg-Ser-Val-Gln] (H-PTRSVQ-NH2)	Ki ([3]; Table 7, read-out: K1 PPK): 0.4 to 0.8 mM
–	–	–	–	–	CCC(CC)[C@@H](N)C(=O)N[C@@H](Cc1ccccc1)C(=O)N[C@@H](CCCNC(=N)N)C(=O)N[C@@H](CO)C(=O)N[C@H](C(=O)N[C@@H](CCC(N)=O)C(N)=O)C(C)C [KKI-87, [D-Ile(4Me)]-Phe-Arg-Ser-Val-Gln] (H-[X2]FRSVQ-NH2; N-terminus assumed)	ΔLog KO/W [4]: 1.11
–	–	–	–	–	CC(C)[C@H](NC(=O)[C@H](CO)NC(=O)[C@H](CCCNC(=N)N)NC(=O)[C@H](Cc1ccccc1)NC(=O)[C@H](N)C12CC3CC(CC(C3)C1)C2)C(=O)N[C@@H](CCC(N)=O)C(N)=O [KKI-88, [D-Adg]-Phe-Arg-Ser-Val-Gln] (H-[X3]FRSVQ-NH2; N-terminus assumed)	ΔLog KO/W [4]: 1.88
–	–	–	–	–	N=C(N)NCCC[C@H](NC(=O)[C@H](CO)NC(=O)[C@H](CO)NC(=O)[C@H](CCCNC(=N)N)NC(=O)[C@H](Cc1ccccc1)NC(=O)[C@@H]1CCCN1)C(N)=O [Pro-Phe-Arg-Ser-Ser-Arg] (H-PFRSSR-NH2)	Ki ([1]; Table 6, HUK, read-out: KI HUK): 0.49 mM; Ki ([2]; Table 6, first HUK column, read-out: KI HUK): 54 µM; Ki ([3]; Table 6, read-out: KI PPK): 0.06 mM
–	–	–	> 20000 µM	> 20 mM	Pro-Map-Aph-Ser-Val-Gln [KIDZ-15]	selectivity for tissue kallikrein over plasma kallikrein or urokinase ([3]; Table 7): selectivity for tissue kallikrein over plasma kallikrein or urokinase; Ki ([3]; Table 7, read-out: K1 PPK): 0.11 mM
